Measured values: patent publication US9045501B2, “5-HT3 receptor modulators, methods of making, and use thereof” (Albany Molecular Research, Inc., priority 2009, dated 2015)

What was measured:
human 5-HT3 receptor = human 5-HT3 receptor (Homo sapiens (Human), UniProt P46098); assay: Radioligand binding assay (SPA format), affinity for the human 5-HT3 receptor; conditions: [9-methyl-3H]BRL-43694 10 nM, human 5-HT3 receptor membranes, Cheng Prusoff; read-out: h5-HT3A Ki
Method: The relative affinity of the various compounds for the human 5-HT3 receptor was measured in a radioligand binding assay, using a scintillation proximity assay (SPA) format. Test compounds were dissolved to 10 mM in 100% DMSO, then serially diluted at 10× assay concentrations in 100% DMSO in 96-well polypropylene plates and further diluted to 4× assay concentrations with the assay buffer. Samples were incubated in 50 mM Tris-HCl, pH 7.5, 3 mM MgCl2, 1 mM EDTA and 10% DMSO with 10 nM [9-methyl-^3H]BRL-43694 (Perkin Elmer), 3 μg of human 5-HT3 receptor membranes (Perkin Elmer) and 0.5 mg/mL SPA beads (WGA PVT, Amersham Biosciences) in a final volume of 0.2 mL. Binding reactions were set up in wells of PicoPlates-96 (Perkin Elmer) by adding consecutively 50 μL of each competing compound or buffer, SPA beads, the radioligand and 5-HT3 receptor membranes. After an overnight incubation at room temperature on a Nutator mixer, plates were centrifuged for 15 min at 1,500 rpm, followed by incubation in the dark for 30 min. Radioactivity was counted in the TopCount microplate counter (Perkin Elmer) for 5 min. Total binding control contained compound dilution buffer only; nonspecific binding was determined in the presence of 30 μM MDL-72222. Specific binding was determined by subtracting nonspecific binding from total binding. All experiments were performed in duplicate using ten concentrations of competing ligand, with ondansetron included as a control in every run. IC50 values were determined from specific binding data using XLfit4.1 curve fitting software from IDBS Ltd. The inhibition constant (Ki) was calculated from the Cheng Prusoff equation: (Ki=IC50/(1+(L/KD)), where L=concentration of radioligand in the assay, and KD=affinity of the radioligand for the receptor.

h5-HT3A receptor = h5-HT3A receptor (Homo sapiens (Human), UniProt P46098); assay: Agonist activity at recombinant human 5-HT3A receptors, [Ca2+]i in HEK293 cells; type: cell-based; conditions: at 1 μM, normalized to the response of 5-HT (5-HT response = 100% at 3 μM); NR = no response
h5-HT3A receptor, sequence (P46098 24-478): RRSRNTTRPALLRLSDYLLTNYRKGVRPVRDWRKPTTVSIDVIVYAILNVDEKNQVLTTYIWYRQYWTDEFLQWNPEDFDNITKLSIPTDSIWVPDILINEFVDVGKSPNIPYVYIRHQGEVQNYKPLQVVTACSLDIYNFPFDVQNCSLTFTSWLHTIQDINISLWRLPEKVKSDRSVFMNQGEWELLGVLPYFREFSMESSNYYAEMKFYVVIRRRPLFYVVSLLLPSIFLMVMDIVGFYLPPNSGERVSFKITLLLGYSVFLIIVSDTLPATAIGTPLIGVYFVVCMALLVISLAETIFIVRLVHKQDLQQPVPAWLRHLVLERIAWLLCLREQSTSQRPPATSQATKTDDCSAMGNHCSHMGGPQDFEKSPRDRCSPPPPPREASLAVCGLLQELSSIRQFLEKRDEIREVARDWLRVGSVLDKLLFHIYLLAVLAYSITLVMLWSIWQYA
Method: Human embryonic kidney (HEK293) cells expressing the h5-HT3A receptor subunit were seeded directly into poly-D-lysine coated, black-walled, clear bottomed, 96 well plates with approximately 1×10^5 cells per well. After 48 hrs incubation in DMEM growth media (100 μL), cells were washed twice (each 200 μL) in Hank's balanced salt solution (Invitrogen) before incubation (1 hr) with Fluo-4 acetoxymethyl (AM) ester (100 μL, 2.5 μM; Molecular Probes). Cells were washed twice (each 200 μL) in Hank's balanced salt solution and incubated for a further 30 min in Hank's balanced salt solution (100 μL) prior to assay (25° C.). Alteration in [Ca^2+]i was measured (relative fluorescence units [RFU]) using a Flexstation (excitation 488 nm and emission 515 nm; frequency of recording 3 sec). After recording for at least 80 sec, vehicle (Hank's balanced salt solution) or drug was automatically administered to the well (50 μL). Baseline was calculated from the 5 data points immediately prior to the first drug administration and the maximum response was that achieved over the 240 sec following drug administration. In all experiments the muscarinic receptor agonist carbachol (1 mM) was added 240 sec after the test drug administration.

5-HT3 receptors = 5-HT3 receptors (Mus musculus (Mouse), UniProt P23979); assay: von Bezold-Jarisch model in vivo: inhibition of 5-HT induced bradycardia; conditions: 3 mg/kg oral, 60 min before 5-HT 0.1 mg/kg IV, anesthetized male ICR mice; highest oral dose tested
5-HT3 receptors, sequence (P23979 24-489): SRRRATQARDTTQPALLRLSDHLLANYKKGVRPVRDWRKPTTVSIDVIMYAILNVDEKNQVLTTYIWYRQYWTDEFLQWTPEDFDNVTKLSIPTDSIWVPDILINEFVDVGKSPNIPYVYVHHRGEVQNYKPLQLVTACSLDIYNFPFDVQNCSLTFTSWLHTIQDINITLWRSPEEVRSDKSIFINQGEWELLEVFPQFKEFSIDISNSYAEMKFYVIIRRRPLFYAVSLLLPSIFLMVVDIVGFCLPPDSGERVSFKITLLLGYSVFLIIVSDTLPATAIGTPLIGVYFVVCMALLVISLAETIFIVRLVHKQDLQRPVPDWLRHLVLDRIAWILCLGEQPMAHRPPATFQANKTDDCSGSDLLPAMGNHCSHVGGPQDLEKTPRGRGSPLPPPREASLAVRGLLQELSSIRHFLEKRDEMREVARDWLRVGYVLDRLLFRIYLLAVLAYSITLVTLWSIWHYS
Method: This is a well characterized and widely used model to assess 5-HT3 receptor function in vivo (King et al., 5-Hydroxtryptamine-3 Receptor Antagonists, CRC Press, pp. 74-75 (1993), which is hereby incorporated by reference in its entirety). Certain compounds (Table 1) were evaluated for their ability to inhibit serotonin induced bradycardia in vivo in the mouse (Saxena et al., Arch. Int. Pharmacodyn., 277:235-252 (1985), which is hereby incorporated by reference in its entirety). Test substances and vehicle [2% Tween 80] were each administered orally to a group of 5 male ICR mice each weighing 24±2 g. A dosing volume of 10 mL/kg was used. Sixty minutes later, 5-HT (0.1 mg/kg IV)-induced bradycardia was recorded in urethane (2250 mg/kg IP, given 10 minutes before 5-HT)-anesthetized animals.

human 5-HT3 receptor, sequence (P46098 24-478): as the sequence (P46098 24-478) above

For O=C1c2cccc3cnn(c23)CCN1[C@@H]1CN2CCC1CC2 [Example 7, (S)-7-(quinuclidin-3-yl)-8,9-dihydro-[1,4]diazepino[6,7,1-hi]indazol-6(7H)-one], the Ki (human 5-HT3 receptor) was 8 nM, the “HEK293 h5-HT3A % agonist response” value (h5-HT3A receptor) was 19% and the “Inhibition of 5-HT Induced Bradycardia in Mice” value (5-HT3 receptors) was 77% @ 3 mg/kg.
O=C1c2cccc3[nH]nc(c23)CN1CC12CCN(CC1)CC2 [Example 29, 4-(quinuclidin-4-ylmethyl)-3,4-dihydropyrazolo[3,4,5-de]isoquinolin-5(1H)-one] was tested, and the Ki (human 5-HT3 receptor) was 2 nM, the “HEK293 h5-HT3A % agonist response” value (h5-HT3A receptor) was 1% and the “Inhibition of 5-HT Induced Bradycardia in Mice” value (5-HT3 receptors) was 87% @ 3 mg/kg.
